Several values for one entry are separate records, joined by “and”; a condition that tells them apart may be missing. Equal entries are not always repeated.
Columns and labels:
[1] = test system: Klebsiella pneumoniae, 24 clinical isolates and 1 lab strain; assay type: cell-based; conditions: average over 25 K. pneumoniae substrains; 37 °C, 16 h, OD 570 nm; growth at 32 μM counted as 64 μM
Method: (§1) Minimum inhibitory concentration (MIC, defined as the minimum AMP concentration to prevent bacterial growth) and biofilm data were obtained by UV–vis spectroscopy using a BioTek Epoch 2 microplate reader.
K. pneumoniae substrains were grown overnight using 50 mL plastic conical tubes on a shaker platform at 37 °C. The following day, serial dilutions of the four SPLUNC1 peptides and LL-37 were tested against these 25 substrains of K. pneumoniae using a 96-well plate. […] Following the addition of the peptides at the tested concentrations from serial dilutions to the K. pneumoniae substrains, the plates were incubated at 37 °C for 16 h. Then, visible spectroscopy at λ = 570 nm was performed to determine the bacterial absorption in each well. Those wells with an optical density reading above a threshold value were deemed resistant to the peptide, while those that were below the threshold value were deemed sensitive to the peptide. The threshold value was determined using Gen5 software with the Di lab Growth Inhibition Assay protocol.
Average MICs and standard deviations were calculated by first averaging the absorbances as a function of AMP concentration in all of the bacterial strains from four total data sets. Then, the average MICs were determined from the averaged absorbances. The standard deviations of the MICs were calculated from each of the absorbances that were used to calculate the average. Then, the standard deviations were averaged across substrains for the graph. These procedures were used to obtain an average MIC with standard deviation across all 25 substrains for one peptide, in order to compare peptide efficacy. Typically, many more substrains are used to obtain an average MIC, so this average MIC may change if thousands of substrains are compared.

[2] = test system: Klebsiella pneumoniae biofilms; experiment: Biofilm growth (crystal violet); assay type: cell-based
Method: as §1
The planktonic samples in the wells were then drained by inversion of the plate. The plate was washed with PBS prior to staining with 125 μL of 0.5% Crystal Violet (in 20% ethanol) for 15 min. Excess stain was removed by washing twice with distilled water. The bacterial remnants on the walls of the wells were analyzed at λ = 620 nm to observe any adhered bacteria. The absorbance values as percent of control (no AMP) do show a tendency of bacterial adherence to the wells. In this work, we will refer to the adhered bacteria after incubation at 37 °C for 16 h as biofilms.

[3] = Circular dichroism secondary structure in Euk33 ULVs; assay type: physicochemical; conditions: 10 μM peptide, 15 mM PBS pH 7, 37 °C
[4] = test system: eukaryotic cells vs bacteria; experiment: Therapeutic index (eukaryotic cell kill concentration / bacterial kill concentration); assay type: cell-based
Method: But more important than cytotoxicity is the therapeutic index (TI), which is the concentration at which ≥90% of eukaryotic cells are killed divided by the concentration at which ≥90% of bacteria are killed. For A4-153, this TI value is an estimated ≈ 128 μM/16 μM ≈ 8. TI for A4-157 is an estimated 128 μM/24 μM ≈ 5, and the TI for A4-183 is an estimated 64 μM/20 μM ≈ 3.

For `CC[C@H](C)[C@H](NC(=O)[C@@H](NC(=O)[C@H](CO)NC(=O)[C@H](CCCCN)NC(=O)[C@@H](NC(=O)[C@H](CCCCN)NC(=O)CNC(=O)[C@H](Cc1c[nH]c2ccccc12)NC(=O)[C@@H](NC(=O)CNC(=O)CNC(=O)[C@@H](NC(=O)[C@H](Cc1c[nH]c2ccccc12)NC(=O)CNC(=O)[C@H](CCCCN)NC(=O)[C@@H](NC(=O)[C@H](CCCCN)NC(=O)[C@H](CCCCN)NC(=O)[C@H](Cc1ccccc1)NC(=O)[C@H](Cc1ccccc1)NC(=O)[C@H](CCCCN)NC(=O)[C@H](CCCCN)NC(=O)[C@@H](N)CC(C)C)C(C)C)C(C)C)C(C)C)C(C)C)C(C)C)C(=O)N[C@@H](CCCCN)C(=O)O` (stereo in doubt) [A4-153], the “average MIC value” [1] was 18 µM, the “prevention of biofilm formation” value ([2]; 25 K. pneumoniae substrains, 16 h at 37 °C, crystal violet, 620 nm) was “generally more efficient than the other peptides at preventing biofilm formation” and the “number of colistin-resistant substrains in which the peptide was the most effective at inhibiting biofilm formation” value ([2]; out of 11 colistin-resistant substrains, at ∼16 μM) was “eight”. The “number of colistin-susceptible substrains in which the peptide was the most effective at inhibiting biofilm formation” value ([2]; out of 13 colistin-susceptible substrains, at ∼16 μM) was “seven”, the Random ([3]; Euk33/peptide molar ratio 0:1) was 57.7% and the α-helix ([3]; Euk33/peptide molar ratio 0:1) was 6.4%. The β-sheet ([3]; Euk33/peptide molar ratio 0:1) was 34.2%, the β-turn ([3]; Euk33/peptide molar ratio 0:1) was 1.7% and the Random ([3]; Euk33/peptide molar ratio 5:1) was 66.2%. The α-helix ([3]; Euk33/peptide molar ratio 5:1) was 9.7%, the β-sheet ([3]; Euk33/peptide molar ratio 5:1) was 24.1% and the β-turn ([3]; Euk33/peptide molar ratio 5:1) was 0%. It also gave a Random ([3]; Euk33/peptide molar ratio 10:1) of 64.2%, a α-helix ([3]; Euk33/peptide molar ratio 10:1) of 12.2% and a β-sheet ([3]; Euk33/peptide molar ratio 10:1) of 23.6%. It also gave a β-turn ([3]; Euk33/peptide molar ratio 10:1) of 0%, a Random ([3]; Euk33/peptide molar ratio 20:1) of 60.4% and a α-helix ([3]; Euk33/peptide molar ratio 20:1) of 14.1%. It also gave a β-sheet ([3]; Euk33/peptide molar ratio 20:1) of 25.5%, a β-turn ([3]; Euk33/peptide molar ratio 20:1) of 0% and a Random ([3]; Euk33/peptide molar ratio 30:1) of 57.5%. The α-helix ([3]; Euk33/peptide molar ratio 30:1) was 16.2% and 16%, the β-sheet ([3]; Euk33/peptide molar ratio 30:1) was 26.3% and the β-turn ([3]; Euk33/peptide molar ratio 30:1) was 0%. It also gave a Random ([3]; Euk33/peptide molar ratio 70:1) of 51.3%, a α-helix ([3]; Euk33/peptide molar ratio 70:1) of 20.5% and a β-sheet ([3]; Euk33/peptide molar ratio 70:1) of 28.2%. The β-turn ([3]; Euk33/peptide molar ratio 70:1) was 0%, the “concentration at which ≥90% of bacteria are killed” value ([4]; denominator of TI) was 16 µM and the “concentration at which ≥90% of eukaryotic cells are killed (estimated)” value ([4]; numerator of TI) was “≈ 128 μM”.

Source: PMC10265666, “Lung SPLUNC1 Peptide Derivatives in the Lipid Membrane Headgroup Kill Gram-Negative Planktonic and Biofilm Bacteria” (Biomacromolecules, 2023)
